Source: paper PMC6925188, “PBRM1 acts as a p53 lysine-acetylation reader to suppress renal tumor growth” (Nature Communications, 2019)

Legend:
Type in all cases: cell-based
[1] = tested on: endogenous PBRM1 and p53; experiment: Endogenous p53 immunoprecipitation, kidney cancer cell lines; settings: ACHN, Caki-1 and Ren-01; 50 μM, 8 h
Procedure: For endogenous p53 immunoprecipitations, cell pellets were lysed in EBC buffer with protease and phosphatase inhibitors, 2 μM TSA and 10 mM NAM. Lysates (approximately 2 mg of total protein) were incubated with 2 μg p53 antibody (DO-1) overnight at 4 °C followed by incubation with protein A/G plus Sepharose (sc-2003, Santa Cruz Biotechnology) for 2 h. Beads were washed with EBC buffer four times, mixed with 1X SDS loading buffer (1% mercaptoethanol, 0.01% Bromophenol blue, 6% Glycerol, 2% SDS, 50 mM Tris-Cl (pH 6.8)) and analyzed by SDS-PAGE and immunoblot.
Supplementary Figure 1. Endogenous PBRM1 and p53 physically associate in kidney […]
μM) for 8 h and harvested for immunoprecipitation with control IgG and p53 antibodies. The bound PBRM1 and p53 were examined by immunoblots. Source data are provided as a Source […]
(1 picture or pasted object on this page, not shown here)

[2] = tested on: PBRM1 binding to CDKN1A; experiment: ChIP-qPCR, Flag antibody (Flag-PBRM1), CDKN1A gene, RCC4 cells; design: unit not given here; settings: 100 μM, 24 h
Procedure: Lysates were analyzed by immunoblots. c RCC4 cells with or without p53 KO were transfected with vector or Flag-PBRM1 at the indicated amounts. […] Cells were harvested for RT-qPCR (g) or ChIP followed by qPCR (h). […] Representative data is shown in i. Quantification of cell cycle phase is shown in j. Source data are provided as a Source Data file.
ChIP assays were performed with the Pierce Agarose ChIP Kit (26156, Thermo Scientific) according to the manufacturer’s instructions with minor revisions. In brief, samples were crosslinked with 1% paraformaldehyde and halted by 125 mM glycine. After washing twice with ice-cold PBS, cells were harvested and suspended in Lysis Buffer 1 and incubated on ice for 10 min. 1 × 10^7 nuclei were resuspended in 500 μl MNase Digestion Buffer containing 6.25 U Micrococcal Nuclease and incubated at 37 °C for 15 min. After the reaction was stopped, nuclei were pelleted by centrifugation and resuspended in 250 μl Lysis Buffer 2. Nuclei were sonicated at 10% amplitude for 10 s twice and incubated on ice for 30 min. After centrifugation, 50 μl supernatant containing the digested chromatin from 2 × 10^6 nuclei was diluted in 1× IP Dilution Buffer and incubated with antibodies (normal rabbit IgG for control, 1 μg FL393 + 1 μg DO-1 for p53 or 2 μg Flag M2 for Flag-PBRM1) overnight at 4 °C. […] of ChIP Grade Protein A/G Plus Agarose was added and incubated for 1 h at 4 °C. The agarose resins were washed once with IP Wash Buffer 1, twice with IP Wash Buffer 2 and once with IP Wash Buffer 3. 150 μl 1× IP Elution Buffer was added to the washed resin and incubated at 65 °C for 30 min with shaking. The eluate was treated with Proteinase K and DNA was extracted with columns provided in the kit.

[3] = tested on: Ren-01 PBRM1 KO cells; experiment: Immunoblot of p53 targets, Ren-01 PBRM1 KO cells; settings: 50 μM etoposide
Procedure: The band intensity of indicated protein was measured with Bio-rad Image Lab 4.1, and the relative ratios were calculated over the signal intensity of Vinculin in the corresponding lanes. c–e. Nude mice xenograft analyses were performed with Ren-01 PBRM1 KO cells expressing GFP (left flank) or PBRM1 (right flank). Representative photographs of a mouse (c, top) and tumors (c, bottom). Tumors were excised and weighed, and data are presented as mean ± SEM (d). p-values were calculated using the paired two-tailed Student’s t-test. Tumors were stained for PBRM1 and p21 expression via IHC (e). Scale bar: 200 μm. f–h Nude mice xenograft analyses were performed with Ren-01 PBRM1 KO cells expressing wild-type PBRM1 (left flank) or the BD4* mutant PBRM1 (right flank). Tumors were excised and weighed, and data are presented as mean ± SEM (g). p-values were calculated using the paired two-tailed Student’s t-test. Representative photographs of a mouse (f, top) and tumors (f, bottom). Tumors were stained for PBRM1 and p21 expression via IHC analysis (h). Scale bar: 200 μm. Source data are provided as a Source Data file.
After washing with ice-cold PBS, cells were scraped on ice and centrifuged at 10,000 × g for 1 min at 4 °C. […]

COc1cc([C@@H]2c3cc4c(cc3[C@@H](O[C@@H]3O[C@@H]5CO[C@@H](C)O[C@H]5[C@H](O)[C@H]3O)[C@H]3COC(=O)[C@H]23)OCO4)cc(OC)c1O [Etoposide]
endogenous PBRM1 associated with endogenous p53 [1]: increased endogenous p53 associated with more endogenous PBRM1 | Flag ChIP at CDKN1A-RE1 ([2]; RCC4-GFP, assay 1): 0.0131 | Flag ChIP at CDKN1A-TSS ([2]; RCC4-GFP, assay 1): 0.013 | Flag ChIP at CDKN1A-intron ([2]; RCC4-GFP, assay 1): 0.0279 | Flag ChIP at CDKN1A-RE1 ([2]; RCC4-GFP, assay 2): 0.0381 | Flag ChIP at CDKN1A-TSS ([2]; RCC4-GFP, assay 2): 0.0086 | Flag ChIP at CDKN1A-intron ([2]; RCC4-GFP, assay 2): 0.0296 | Flag ChIP at CDKN1A-RE1 ([2]; RCC4-GFP, assay 3): 0.0109 | Flag ChIP at CDKN1A-TSS ([2]; RCC4-GFP, assay 3): 0.0269 | Flag ChIP at CDKN1A-intron ([2]; RCC4-GFP, assay 3): 0.0971 | Flag ChIP at CDKN1A-RE1 ([2]; RCC4-PBRM1-BD4*, assay 1): 0.1332 | Flag ChIP at CDKN1A-TSS ([2]; RCC4-PBRM1-BD4*, assay 1): 0.204 | Flag ChIP at CDKN1A-intron ([2]; RCC4-PBRM1-BD4*, assay 1): 0.0594 | Flag ChIP at CDKN1A-RE1 ([2]; RCC4-PBRM1-BD4*, assay 2): 0.168 | Flag ChIP at CDKN1A-TSS ([2]; RCC4-PBRM1-BD4*, assay 2): 0.1814 | Flag ChIP at CDKN1A-intron ([2]; RCC4-PBRM1-BD4*, assay 2): 0.0845 | Flag ChIP at CDKN1A-RE1 ([2]; RCC4-PBRM1-BD4*, assay 3): 0.1906 | Flag ChIP at CDKN1A-TSS ([2]; RCC4-PBRM1-BD4*, assay 3): 0.171 | Flag ChIP at CDKN1A-intron ([2]; RCC4-PBRM1-BD4*, assay 3): 0.0675 | Flag ChIP at CDKN1A-RE1 ([2]; RCC4-PBRM1, assay 1): 0.118 | Flag ChIP at CDKN1A-TSS ([2]; RCC4-PBRM1, assay 1): 0.1053 | Flag ChIP at CDKN1A-intron ([2]; RCC4-PBRM1, assay 1): 0.1192 | Flag ChIP at CDKN1A-RE1 ([2]; RCC4-PBRM1, assay 2): 0.114 | Flag ChIP at CDKN1A-TSS ([2]; RCC4-PBRM1, assay 2): 0.1575 | Flag ChIP at CDKN1A-intron ([2]; RCC4-PBRM1, assay 2): 0.074 | Flag ChIP at CDKN1A-RE1 ([2]; RCC4-PBRM1, assay 3): 0.1263 | Flag ChIP at CDKN1A-TSS ([2]; RCC4-PBRM1, assay 3): 0.1136 | Flag ChIP at CDKN1A-intron ([2]; RCC4-PBRM1, assay 3): 0.066 | expression of p53 downstream targets after DNA damage, wild-type vs BD4* PBRM1 [3]: rescued by wild-type but not BD4* mutant PBRM1
